Assay results published in patent US8697720B2 (Crestone, Inc., priority 2006, dated 2014).

Columns and labels:
[1] = tested on: C. difficile strain ATCC43255; assay: Toxin A production in high cell density stationary phase C. difficile cultures (ELIFA); type: cell-based; settings: 4 day old stationary phase cultures, toxin A by ELIFA
Method: C. difficile strain ATCC43255 was grown and maintained anaerobically on CDC anaerobe agar (Remel, Lenexa, Kans.). To test the effect of antibacterial agents on growth, cells were grown anaerobically for 40 h at 35° C. in 96-well brain heart infusion (BHI) broth cultures, with an initial inoculum of 10^6 CFU/mL. To test the effect of antibacterial agents on toxin production at high C. difficile cell densities, the cells were grown anaerobically for 24 h at 35° C. in 96-well brain heart infusion (BHI) broth cultures. Spent medium was then replaced with fresh broth containing MetRS inhibitors and control agents at a concentration range of 0.015-16 μg/mL. After 4 days, growth and cell viability were monitored by optical density measurements at 595 nm and by culture on CDC anaerobe agar, respectively. Culture supernatants were collected, and toxin A was detected by ELIFA (enzyme-linked immuno-flow assay) using an anti toxin A monoclonal antibody (Novus Biologicals, Centennial, Colo.).

C. difficile = assay: C. difficile-infected hamster survival study; type: in vivo
Method: Animal studies were performed to determine the efficacy of MetRS inhibitors for treating C. difficile-infections. The MetRS inhibitors tested were 5-[3-((R)-6,8-Dibromo-chroman-4-ylamino)-propylamino]-4H-thieno[3,2-b]pyridine-7-one (both racemic mixture and the R enantiomer), 5-[3-((R)-8-Bromo-6-chloro-chroman-4-ylamino)-propylamino]-4H-thieno[3,2-b]pyridin-7-one, and 2-(3-{3,5-Dibromo-2-[2-(4-methyl-thiazol-5-yl)-ethoxy]-benzylamino}-propylamino)-1H-quinolin-4-one.
Results were compared to C. difficile-infected hamsters treated with the conventional antibiotic, vancomycin. Infected hamsters were treated with either a solution or suspension of a MetRS inhibitor at 5 to 50 mg/kg or vancomycin at 2.5, 5 or 25 mg/kg. There were eight hamsters per group with the final endpoint of the experiment being survival. Expired hamsters were examined for GI condition.

Compound	concentrations that inhibited toxin production [1] [µg/mL]	also measured
Cc1ncsc1CCOc1c(Br)cc(Br)cc1CNCCCNc1cc(=O)c2sccc2[nH]1	0.25	
Cl.Cl.Cl.O=c1cc(NCCCNC2CCNc3c(Br)cc(Br)cc32)[nH]c2ccsc12 (stereo not drawn) [5-[3-(6,8-Dibromo-1,2,3,4-tetrahydro-quinolin-4-ylamino)-propylamino]-4H-thieno[3,2-b]pyridin-7-one tri-hydrochloride]	0.25	
O=c1cc(NCCCN[C@@H]2CCOc3c(Br)cc(Br)cc32)[nH]c2ccsc12 [5-[3-((R)-6,8-Dibromo-chroman-4-ylamino)-propylamino]-4H-thieno[3,2-b]pyridine-7-one]		survival of infected hamsters (C. difficile; MetRS inhibitor at 5 to 50 mg/kg, untreated controls died within 3-4 days): best efficacy
O=c1cc(NCCCNC2CCOc3c(Br)cc(Br)cc32)[nH]c2ccsc12 (stereo not drawn) [5-[3-(6,8-Dibromo-chroman-4-ylamino)-propylamino]-4H-thieno[3,2-b]pyridin-7-one]	0.25	
Cl.Cl.O=c1cc(NCCCN[C@@H]2CCOc3c(Br)cc(Br)cc32)[nH]c2ccsc12 [R-(+)-5-[3-(6,8-Dibromo-chroman-4-ylamino)-propylamino]-4H-thieno[3,2-b]pyridin-7-one di-hydrochloride]	0.25	
CN[C@H](CC(C)C)C(=O)N[C@H]1C(=O)N[C@@H](CC(N)=O)C(=O)N[C@H]2C(=O)N[C@H]3C(=O)N[C@H](C(=O)N[C@H](C(=O)O)c4cc(O)cc(O)c4-c4cc3ccc4O)[C@H](O)c3ccc(c(Cl)c3)Oc3cc2cc(c3O[C@@H]2O[C@H](CO)[C@@H](O)[C@H](O)[C@H]2O[C@H]2C[C@](C)(N)[C@H](O)[C@H](C)O2)Oc2ccc(cc2Cl)[C@H]1O [vancomycin, reference compound]		survival with vancomycin (C. difficile; Day 28, vancomycin at 2.5, 5 or 25 mg/kg): 0-10%
